Experimental data as given in patent US20230131899A1, “INHIBITORS OF MICROBIALLY INDUCED AMYLOID” (Axial Therapeutics, Inc., priority 2020, published 2023).
Like-named read-outs stand apart in the source and are kept apart here.

Tested on: CsgA gene expression (csgBAC promoter-GFP reporter) in E. coli UTI89
Assay: In vitro live cell fluorescent reporter assay of CsgA transcription (Reporter Assay)
Type: cell-based
Conditions: Escherichia coli
Method in brief: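 Chromosomal single-copy csgBAC promoter–GFP reporter in E. coli UTI89, started at OD600 0.003 in YESCA broth with compound (0.14–100 μM, 1% DMSO), 20 h at 27 °C. GFP (ex 485/em 525 nm) background-subtracted and normalized to vehicle; IC50 and X[50] from curve fits. OD600 tracked growth effects.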

[1] = read-out: Reporter Assay Abs IC50 (μM), median Abs IC50 in the CsgA reporter assay, N/A = maximum expression reduction is <50% of control
[2] = read-out: Reporter Assay Abs IC50, activity range, class symbol

SMILES | IC50 [1] [µM] | IC50 [2] [µM]
CCCN1CC(C(=O)O)n2c(c(-c3cccc(C(F)(F)F)c3)c(Cc3cccc4ccccc34)c(NC(=O)C(C)C)c2=O)S1(=O)=O (centres unmarked) [Compound 152, 7-isobutyramido-8-(naphthalen-1-ylmethyl)-6-oxo-2-propyl-9-(3-(trifluoromethyl)phenyl)-3,4-dihydro-2H,6H-pyrido[1,2-e][1,2,5]thiadiazine-4-carboxylic acid 1,1-dioxide] | 11.4 | > 10
CCCN1CC(C(=O)O)n2c(c(-c3cccc(C(F)(F)F)c3)c(Cc3cccc4ccccc34)c(NC(=O)CC)c2=O)S1(=O)=O (centres unmarked) [Compound 153, 8-(naphthalen-1-ylmethyl)-6-oxo-7-propionamido-2-propyl-9-(3-(trifluoromethyl)phenyl)-3,4-dihydro-2H,6H-pyrido[1,2-e][1,2,5]thiadiazine-4-carboxylic acid 1,1-dioxide] | 16.6 | > 10
CCCNC(=O)c1c(Cc2cccc3ccccc23)c(-c2cccc(C(F)(F)F)c2)c2n(c1=O)C(C(=O)O)CN(C)S2(=O)=O (centres unmarked) [Compound 154, 2-methyl-8-(naphthalen-1-ylmethyl)-6-oxo-7-(propylcarbamoyl)-9-(3-(trifluoromethyl)phenyl)-3,4-dihydro-2H,6H-pyrido[1,2-e][1,2,5]thiadiazine-4-carboxylic acid 1,1-dioxide] | 6.1 | 4.6 to 10
O=C(O)C1CN(Cc2ccccc2)c2c(-c3cccc(C(F)(F)F)c3)c(C(F)(F)c3cccc4ccccc34)c(Br)c(=O)n21 (centres unmarked) [Compound 155, 1-benzyl-6-bromo-7-(difluoro(naphthalen-1-yl)methyl)-5-oxo-8-(3-(trifluoromethyl)phenyl)-1,2,3,5-tetrahydroimidazo[1,2-a]pyridine-3-carboxylic acid] | 3 | 1.3 to 4.5
CCNC(=O)c1c(Cc2cccc3ccccc23)c(-c2cccc(C(F)(F)F)c2)c2n(c1=O)C(C(=O)O)CN(C)S2(=O)=O (centres unmarked) [Compound 156, 7-(ethylcarbamoyl)-2-methyl-8-(naphthalen-1-ylmethyl)-6-oxo-9-(3-(trifluoromethyl)phenyl)-3,4-dihydro-2H,6H-pyrido[1,2-e][1,2,5] thiadiazine-4-carboxylic acid 1,1-dioxide] | 9.3 | 4.6 to 10
CN1CC(C(=O)O)n2c(c(-c3cccc(C(F)(F)F)c3)c(Cc3cccc4ccccc34)c(C(=O)NC(C)(C)C)c2=O)S1(=O)=O (centres unmarked) [Compound 158, 7-(tert-butylcarbamoyl)-2-methyl-8-(naphthalen-1-ylmethyl)-6-oxo-9-(3-(trifluoromethyl)phenyl)-3,4-dihydro-2H,6H-pyrido[1,2-e][1,2,5]thiadiazine-4-carboxylic acid 1,1-dioxide] | 1.7 | 1.3 to 4.5
CN1CC(C(=O)O)n2c(c(-c3cccc(C(F)(F)F)c3)c(Cc3cccc4ccccc34)c(C(=O)N3CCOCC3)c2=O)S1(=O)=O (centres unmarked) [Compound 160, 2-methyl-7-(morpholine-4-carbonyl)-8-(naphthalen-1-ylmethyl)-6-oxo-9-(3-(trifluoromethyl)phenyl)-3,4-dihydro-2H,6H-pyrido[1,2-e][1,2,5] thiadiazine-4-carboxylic acid 1,1-dioxide] | 65.8 | > 10
CCc1c(Cc2cccc3ccccc23)c(-c2cccc(C(F)(F)F)c2)c2n(c1=O)C(C(=O)O)CN2Cc1ccc(OC)cc1 (centres unmarked) [Compound 161, 6-ethyl-1-(4-methoxybenzyl)-7-(naphthalen-1-ylmethyl)-5-oxo-8-(3-(trifluoromethyl)phenyl)-1,2,3,5-tetrahydroimidazo[1,2-a]pyridine-3-carboxylic acid] | 2.1 | 1.3 to 4.5
CCCN1CC(C(=O)O)n2c1c(-c1cccc(C(F)(F)F)c1)c(Cc1cccc3ccccc13)c(Cl)c2=O (centres unmarked) [Compound 162, 6-chloro-7-(naphthalen-1-ylmethyl)-5-oxo-1-propyl-8-(3-(trifluoromethyl)phenyl)-1,2,3,5-tetrahydroimidazo[1,2-a]pyridine-3-carboxylic acid] | 1.1 | < 1.3
CCCCN1CC(C(=O)O)n2c1c(-c1cccc(C(F)(F)F)c1)c(Cc1cccc3ccccc13)c(Cl)c2=O (centres unmarked) [Compound 163, 1-butyl-6-chloro-7-(naphthalen-1-ylmethyl)-5-oxo-8-(3-(trifluoromethyl)phenyl)-1,2,3,5-tetrahydroimidazo[1,2-a]pyridine-3-carboxylic acid] | 1.2 | < 1.3
CC(C)CN1CC(C(=O)O)n2c1c(-c1cccc(C(F)(F)F)c1)c(Cc1cccc3ccccc13)c(Cl)c2=O (centres unmarked) [Compound 164, 6-chloro-1-isobutyl-7-(naphthalen-1-ylmethyl)-5-oxo-8-(3-(trifluoromethyl)phenyl)-1,2,3,5-tetrahydroimidazo[1,2-a]pyridine-3-carboxylic acid] | 0.9 | < 1.3
O=C(O)C1CN(CC2CCCC2)c2c(-c3cccc(C(F)(F)F)c3)c(Cc3cccc4ccccc34)c(Cl)c(=O)n21 (centres unmarked) [Compound 167, 6-chloro-1-(cyclopentylmethyl)-7-(naphthalen-1-ylmethyl)-5-oxo-8-(3-(trifluoromethyl)phenyl)-1,2,3,5-tetrahydroimidazo[1,2-a]pyridine-3-carboxylic acid] | 0.6 | < 1.3
N#Cc1cccc(CN2CC(C(=O)O)n3c2c(-c2cccc(C(F)(F)F)c2)c(Cc2cccc4ccccc24)c(Cl)c3=O)c1 (centres unmarked) [Compound 168, 6-chloro-1-(3-cyanobenzyl)-7-(naphthalen-1-ylmethyl)-5-oxo-8-(3-(trifluoromethyl)phenyl)-1,2,3,5-tetrahydroimidazo[1,2-a]pyridine-3-carboxylic acid] | 1.3 | 1.3 to 4.5
O=C(O)C1CN(Cc2cccnc2)c2c(-c3cccc(C(F)(F)F)c3)c(Cc3cccc4ccccc34)c(Cl)c(=O)n21 (centres unmarked) [Compound 169, 6-chloro-7-(naphthalen-1-ylmethyl)-5-oxo-1-(pyridin-3-ylmethyl)-8-(3-(trifluoromethyl)phenyl)-1,2,3,5-tetrahydroimidazo[1,2-a]pyridine-3-carboxylic acid] | 3.8 | 1.3 to 4.5
O=C(O)C1CN(Cc2ccc(CO)cc2)c2c(-c3cccc(C(F)(F)F)c3)c(Cc3cccc4ccccc34)c(Cl)c(=O)n21 (centres unmarked) [Compound 170, 6-chloro-1-(4-(hydroxymethyl)benzyl)-7-(naphthalen-1-ylmethyl)-5-oxo-8-(3-(trifluoromethyl)phenyl)-1,2,3,5-tetrahydroimidazo[1,2-a]pyridine-3-carboxylic acid] | 2.2 | 1.3 to 4.5
CCCN1CC(C(=O)O)n2c(c(-c3cccc(C(F)(F)F)c3)c(Cc3cccc4ccccc34)c(C(N)=O)c2=O)S1(=O)=O (centres unmarked) [Compound 172, 7-carbamoyl-8-(naphthalen-1-ylmethyl)-6-oxo-2-propyl-9-(3-(trifluoromethyl)phenyl)-3,4-dihydro-2H,6H-pyrido[1,2-e][1,2,5]thiadiazine-4-carboxylic acid 1,1-dioxide] | 4.2 | 1.3 to 4.5
CN(C)C(=O)c1c(Cc2cccc3ccccc23)c(-c2cccc(C(F)(F)F)c2)c2n(c1=O)C(C(=O)O)CN(C)S2(=O)=O (centres unmarked) [Compound 173, 7-(dimethylcarbamoyl)-2-methyl-8-(naphthalen-1-ylmethyl)-6-oxo-9-(3-(trifluoromethyl)phenyl)-3,4-dihydro-2H,6H-pyrido[1,2-e] [1,2,5] thiadiazine-4-carboxylic acid 1,1-dioxide] | 6.7 | 4.6 to 10
O=C(O)C1CN(Cc2ccncc2)c2c(-c3cccc(C(F)(F)F)c3)c(Cc3cccc4ccccc34)c(Cl)c(=O)n21 (centres unmarked) [Compound 174, 6-chloro-7-(naphthalen-1-ylmethyl)-5-oxo-1-(pyridin-4-ylmethyl)-8-(3-(trifluoromethyl)phenyl)-1,2,3,5-tetrahydroimidazo[1,2-a]pyridine-3-carboxylic acid] | 4.4 | 1.3 to 4.5
CC(C)N1CC(C(=O)O)n2c(c(-c3cccc(C(F)(F)F)c3)c(Cc3cccc4ccccc34)c(C(N)=O)c2=O)S1(=O)=O (centres unmarked) [Compound 175, 7-carbamoyl-2-isopropyl-8-(naphthalen-1-ylmethyl)-6-oxo-9-(3-(trifluoromethyl)phenyl)-3,4-dihydro-2H,6H-pyrido[1,2-e][1,2,5]thiadiazine-4-carboxylic acid 1,1-dioxide] | 1.4 | 1.3 to 4.5
NC(=O)c1c(Cc2cccc3ccccc23)c(-c2cccc(C(F)(F)F)c2)c2n(c1=O)C(C(=O)O)CN(C1CCCC1)S2(=O)=O (centres unmarked) [Compound 176, 7-carbamoyl-2-cyclopentyl-8-(naphthalen-1-ylmethyl)-6-oxo-9-(3-(trifluoromethyl)phenyl)-3,4-dihydro-2H,6H-pyrido[1,2-e][1,2,5]thiadiazine-4-carboxylic acid 1,1-dioxide] | 1.3 | 1.3 to 4.5
CCCCN1CC(C(=O)O)n2c(c(-c3cccc(C(F)(F)F)c3)c(Cc3cccc4ccccc34)c(C(N)=O)c2=O)S1(=O)=O (centres unmarked) [Compound 177, 2-butyl-7-carbamoyl-8-(naphthalen-1-ylmethyl)-6-oxo-9-(3-(trifluoromethyl)phenyl)-3,4-dihydro-2H,6H-pyrido[1,2-e][1,2,5]thiadiazine-4-carboxylic acid 1,1-dioxide] | 1.3 | 1.3 to 4.5
O=C(O)C1CN(CCc2ccccc2)c2c(-c3cccc(C(F)(F)F)c3)c(Cc3cccc4ccccc34)c(Cl)c(=O)n21 (centres unmarked) [Compound 178, 6-chloro-7-(naphthalen-1-ylmethyl)-5-oxo-1-phenethyl-8-(3-(trifluoromethyl)phenyl)-1,2,3,5-tetrahydroimidazo[1,2-a]pyridine-3-carboxylic acid] | 0.8 | < 1.3
